{
  "source": "ChEMBL document CHEMBL3045902",
  "about": "“Actions of imidacloprid, clothianidin and related neonicotinoids on nicotinic acetylcholine receptors of American cockroach neurons and their relationships with insecticidal potency” (J Pestic Sci, 2006)",
  "key": {"[1]": {"target": "T1, Nicotinic acetylcholine receptor alpha8 subunit (Periplaneta americana) (UniProt H6TY12)", "T1 sequence (whole entry)": "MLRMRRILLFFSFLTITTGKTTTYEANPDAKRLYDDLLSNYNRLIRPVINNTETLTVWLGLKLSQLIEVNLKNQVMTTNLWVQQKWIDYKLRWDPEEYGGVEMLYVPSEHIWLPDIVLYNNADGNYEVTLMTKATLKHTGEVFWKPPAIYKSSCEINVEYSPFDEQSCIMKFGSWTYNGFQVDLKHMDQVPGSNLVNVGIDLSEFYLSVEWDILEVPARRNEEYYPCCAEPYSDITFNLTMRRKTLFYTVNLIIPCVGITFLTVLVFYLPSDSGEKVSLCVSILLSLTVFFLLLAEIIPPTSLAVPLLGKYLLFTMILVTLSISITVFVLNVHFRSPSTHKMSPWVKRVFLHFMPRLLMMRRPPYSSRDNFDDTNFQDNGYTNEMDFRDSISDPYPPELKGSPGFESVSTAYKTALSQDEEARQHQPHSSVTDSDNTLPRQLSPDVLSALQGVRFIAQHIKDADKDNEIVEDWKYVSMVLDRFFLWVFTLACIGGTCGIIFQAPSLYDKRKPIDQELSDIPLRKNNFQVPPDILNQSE", "test": "Agonist activity at Periplaneta americana (American cockroach) nAChR in terminal abdominal ganglion assessed as assessed as inward current by tight-seal whole cell patch clamp method relative to 100 uM ACh", "format": "tissue-based"}, "Periplaneta americana": {"test_system": "Periplaneta americana", "test": "Insecticidal activity against Periplaneta americana (American cockroach) assessed as killing measured per insect at 25 to 28 degC for 24 hr in presence of piperonyl butoxide", "format": "functional"}, "[2]": {"target": "T2, Nicotinic acetylcholine receptor alpha8 subunit (Periplaneta americana, UniProt H6TY12)", "T2 sequence (H6TY12 whole entry)": "T1 sequence (whole entry)", "test": "Agonist activity at Periplaneta americana (American cockroach) nAChR in terminal abdominal ganglion assessed as assessed as inward current by tight-seal whole cell patch clamp method", "format": "tissue-based"}, "[3]": {"test": "Hydrophobicity, log K of the compound by HPLC", "format": "physicochemical"}},
  "note": "Calls of active or inactive are those of the source. The rule behind the calls is not given here.",
  "data": [
    {"smiles": "O=[N+]([O-])/N=C1\\NCCN1Cc1cnc(Cl)s1", "note": "[IMIDACLOTHIZ]", "values": [
      {"measurement": "Imax", "setting": "[1]", "result": 0.3},
      {"measurement": "pMLD", "setting": "Periplaneta americana", "result": 9.07},
      {"measurement": "EC50", "setting": "[2]", "result": 1580, "unit": "nM"},
      {"measurement": "log K", "setting": "[3]", "result": 0.28}
    ]},
    {"smiles": "O=[N+]([O-])/C=C1\\NCCN1Cc1ccc(Cl)nc1", "values": [
      {"measurement": "Imax", "setting": "[1]", "result": 0.24},
      {"measurement": "pMLD", "setting": "Periplaneta americana", "result": 10.1},
      {"measurement": "EC50", "setting": "[2]", "result": 72.4, "unit": "nM"},
      {"measurement": "log K", "setting": "[3]", "result": 0.05}
    ]},
    {"smiles": "CC(=O)OCC[N+](C)(C)C", "note": "[ACETYLCHOLINE]", "values": [
      {"measurement": "pMLD", "setting": "Periplaneta americana", "result": "inactive"},
      {"measurement": "EC50", "setting": "[2]", "result": 11500, "unit": "nM"}
    ]},
    {"smiles": "CN/C(=N\\[N+](=O)[O-])NCc1cnc(Cl)s1", "note": "[CLOTHIANIDINE]", "values": [
      {"measurement": "Imax", "setting": "[1]", "result": 0.68},
      {"measurement": "pMLD", "setting": "Periplaneta americana", "result": 10.2},
      {"measurement": "EC50", "setting": "[2]", "result": 1580, "unit": "nM"},
      {"measurement": "log K", "setting": "[3]", "result": 0.17}
    ]},
    {"smiles": "O=[N+]([O-])NC1=NCCN1Cc1ccc(Cl)nc1", "note": "[IMIDACLOPRID]", "values": [
      {"measurement": "EC50", "setting": "[2]", "result": 1320, "unit": "nM"},
      {"measurement": "log K", "setting": "[3]", "result": 0.23}
    ]},
    {"smiles": "C/N=C(\\NCc1ccc(Cl)nc1)N[N+](=O)[O-]", "values": [
      {"measurement": "Imax", "setting": "[1]", "result": 0.31},
      {"measurement": "pMLD", "setting": "Periplaneta americana", "result": 9.52},
      {"measurement": "EC50", "setting": "[2]", "result": 1860, "unit": "nM"},
      {"measurement": "log K", "setting": "[3]", "result": 0.11}
    ]},
    {"smiles": "O=[N+]([O-])/C=C1\\NCCN1Cc1cnc(Cl)s1", "values": [
      {"measurement": "Imax", "setting": "[1]", "result": 0.3},
      {"measurement": "pMLD", "setting": "Periplaneta americana", "result": 10.2},
      {"measurement": "EC50", "setting": "[2]", "result": 15.8, "unit": "nM"},
      {"measurement": "log K", "setting": "[3]", "result": 0.03}
    ]},
    {"smiles": "CN/C(=C\\[N+](=O)[O-])NCc1cnc(Cl)s1", "values": [
      {"measurement": "Imax", "setting": "[1]", "result": 0.47},
      {"measurement": "pMLD", "setting": "Periplaneta americana", "result": 10.2},
      {"measurement": "EC50", "setting": "[2]", "result": 19.5, "unit": "nM"},
      {"measurement": "log K", "setting": "[3]", "result": 0.14}
    ]},
    {"smiles": "CN/C(=C\\[N+](=O)[O-])NCc1ccc(Cl)nc1", "values": [
      {"measurement": "Imax", "setting": "[1]", "result": 0.44},
      {"measurement": "pMLD", "setting": "Periplaneta americana", "result": 9.22},
      {"measurement": "EC50", "setting": "[2]", "result": 38.9, "unit": "nM"},
      {"measurement": "log K", "setting": "[3]", "result": 0.16}
    ]},
    {"smiles": "O=[N+]([O-])/N=C1\\NCCN1Cc1ccc(Cl)nc1", "note": "[IMIDACLOPRID]", "values": [
      {"measurement": "Imax", "setting": "[1]", "result": 0.11},
      {"measurement": "pMLD", "setting": "Periplaneta americana", "result": 10.4}
    ]}
  ]
}
